Results taken from patent US6737407B1, “Treatment of obesity” (Metabolic Pharmaceuticals, Ltd., priority 1997, dated 2004).
Bridges are numbered along the chain shown (N, C = ends). Where no end group is shown, it is not given here. [ ]: non-standard residue; d: D form. The star is where a group is joined. Pen = CC(C)(S)[C@H](N)C(=O)O; Acm = CC(=O)NC*

System: adipose tissues from male Zucker fatty (fa/fa) rats
Experiment: In vitro inhibition of lipogenesis in isolated adipose tissue
Type: cell-based, rat
Settings: for In vitro lipogenesis % of control / In vitro lipogenesis Activity / In vitro lipogenesis, rate of [C14]-glucose incorporation into [C14]-lipid: peptide 0.3 μM, insulin 0.1 mU/ml; for In vitro lipogenesis, rate of [C14]-glucose incorporation into [C14]-lipid: KRB buffer; for activity according to the in vivo and in vitro assay results (in words): structure-activity summary
Protocol: The rate of the incorporation of exogenous [C^14]-glucose into total lipid in adipose tissue was measured as the index of anti-lipogenic activity of hGH 177-191.
Adipose tissues were sliced into segments of approximately 200 mg each and then placed in Krebs-Ringer bicarbonate (KRB) buffer (pH 7.4) containing 2% defatted BSA, and glucose (0.1 mg/ml) and gassed with 95% O2-5% CO2 at 37° C. After 1 hr preincubation, the tissues were transferred to another 2 ml of fresh media containing [C^14]-glucose (final specific activity 0.05 μCi/μmol), and 0.3 μM of hGH 177-191 in the presence or absence of insulin (0.1 mU/ml) for a further 90 min incubation (conditions as above). Then the tissues were removed, washed thoroughly with KRB buffer and lipid was extracted with 5 ml of chlorofom/methanol (2:1, v/v) The extraction solution was washed with 2 ml of MeOH-H2O solution containing 0.1% MgCl2. A 2.5 ml aliquot of the washed extraction solution was taken and transferred to scintillation vials. The [C^14] radioactivity was measured with a liquid scintillation counter. The rates of total lipid synthesis were expressed as μmol [C^14]-glucose incorporated into lipid/g tissue/hr.

Row | Substance | In vitro lipogenesis % of control | In vitro lipogenesis Activity | In vitro lipogenesis, rate of [C14]-glucose incorporation into [C14]-lipid [nmol/g tissue/hr] | activity according to the in vivo and in vitro assay results (in words)
1 | 9401 (LRIVQCRSVEGSCGF; listed as Homo sapiens) [Compound 9401] | 75 % of control | Active | 161 ± 10 | 
2 | 9402 (LRIVQC(Acm)RSVEGSCGF; not fully specified (residue 13); listed as Homo sapiens) [Compound 9402] | 91 % of control | Inactive | 222 ± 9 | 
3 | 9402 (LRIVQC(Acm)RSVEGSCGF; not fully specified (residue 13); listed as Homo sapiens) [compound 9402] |  |  |  | inactive
4 | 9403 (LRKVQCRSVEGSCGF; disulfide 6-13; listed as Homo sapiens) [Compound 9403] | 69 % of control | Active | 167 ± 28 | 
5 | 9404 (LRIVQCRSVEGSCGF-NH2; disulfide 6-13; N-terminus assumed; SMILES CC[C@H](C)[C@H](NC(=O)[C@H](CCCNC(=N)N)NC(=O)[C@@H](N)CC(C)C)C(=O)N[C@H](C(=O)N[C@@H](CCC(N)=O)C(=O)N[C@H]1CSSC[C@@H](C(=O)NCC(=O)N[C@@H](Cc2ccccc2)C(N)=O)NC(=O)[C@H](CO)NC(=O)CNC(=O)[C@H](CCC(=O)O)NC(=O)[C@H](C(C)C)NC(=O)[C@H](CO)NC(=O)[C@H](CCCNC(=N)N)NC1=O)C(C)C; listed as Homo sapiens) [Compound 9404] | 77 % of control | Active | 187 ± 18 | 
6 | 9405 (Ac-LRIVQCRSVEGSCGF; disulfide 6-13; listed as Homo sapiens) [Compound 9405] | 68 % of control | Active | 164 ± 17 | 
7 | 9406 (LRIVQCASVEGSCGF; listed as Homo sapiens) [Compound 9406] | 97 % of control | Inactive | 236 ± 17 | 
8 | 9407 (LRIVQCKSVEGSCGF; disulfide 6-13; listed as Homo sapiens) [Compound 9407] | 71 % of control | Active | 174 ± 16 | 
9 | 9408 (LRIVQCKSVEGSCGF; lactam 7-10; disulfide 6-13; listed as Homo sapiens) [compound 9408] |  |  |  | retains activity
10 | 9410 (H-LRIVQCRSVEGSCGF; disulfide 6-13; also: desamino N-terminus; listed as Homo sapiens) [Compound 9410] | 59 % of control | Active | 143 ± 20 | 
11 | 9501 (LRIVQCRSVE[dA]SC[dA]F; disulfide 6-13; listed as Homo sapiens) [Compound 9501] | 76 % of control | Active | 185 ± 6 | 
12 | 9501 (LRIVQCRSVE[dA]SC[dA]F; disulfide 6-13; listed as Homo sapiens) [compound 9501] |  |  |  | activity being retained
13 | 9502 (LRIVQ[Pen]RSVEGS[Pen]GF; disulfide 6-13; listed as Homo sapiens) [Compound 9502] | 72 % of control | Active | 174 ± 5 | 
14 | 9601 (LRIVQCRSVEGSCGA; disulfide 6-13; listed as Homo sapiens) [Compound 9601] | 76 % of control | Active | 185 ± 24 | 
15 | 9602 (LRIVQCRSVEGSCAF; disulfide 6-13; listed as Homo sapiens) [Compound 9602] | 73 % of control | Active | 176 ± 27 | 
16 | 9603 (LAIVQCRSVEGSCGF; listed as Homo sapiens) [Compound 9603] | 93 % of control | Inactive | 225 ± 18 | 
17 | 9604 (YLRIVQCRSVEGSCGF; disulfide 7-14; listed as Homo sapiens) [Compound 9604] | 49 % of control | Active | 118 ± 16 | 

Row | Substance | In vitro lipogenesis % of control | In vitro lipogenesis Activity | In vitro lipogenesis, rate of [C14]-glucose incorporation into [C14]-lipid [nmol/g tissue/hr] | activity according to the in vivo and in vitro assay results (in words)
18 | 9605 (KLRIVQCRSVEGSCGF; disulfide 7-14; listed as Homo sapiens) [Compound 9605] | 76 % of control | Active | 184 ± 41 | 
19 | 9606 (LKIVQCRSVEGSCGF; disulfide 6-13; listed as Homo sapiens) [Compound 9606] | 77 % of control | Active | 187 ± 19 | 
20 | 9606 (LKIVQCRSVEGSCGF; disulfide 6-13; listed as Homo sapiens) [compound 9606] |  |  |  | retains activity
21 | 9607 (ARIVQCRSVEGSCGF; disulfide 6-13; listed as Homo sapiens) [Compound 9607] | 82 % of control | Active | 198 ± 12 | 
22 | 9608 (LRAVQCRSVEGSCGF; disulfide 6-13; listed as Homo sapiens) [Compound 9608] | 71 % of control | Active | 173 ± 12 | 
23 | 9609 (LRIAQCRSVEGSCGF; disulfide 6-13; listed as Homo sapiens) [Compound 9609] | 78 % of control | Active | 188 ± 13 | 
24 | 9610 (LRIVACRSVEGSCGF; disulfide 6-13; listed as Homo sapiens) [Compound 9610] | 79 % of control | Active | 192 ± 14 | 
25 | 9611 (LRIVQARSVEGSCGF; listed as Homo sapiens) [Compound 9611] | 93 % of control | Inactive | 224 ± 19 | 
26 | 9611 (LRIVQARSVEGSCGF; listed as Homo sapiens) [compound 9611] |  |  |  | inactive
27 | 9612 (LRIVQCRAVEGSCGF; disulfide 6-13; listed as Homo sapiens) [Compound 9612] | 79 % of control | Active | 191 ± 20 | 
28 | 9613 (LRIVQCRSAEGSCGF; disulfide 6-13; listed as Homo sapiens) [Compound 9613] | 78 % of control | Active | 189 ± 16 | 
29 | 9614 (LRIVQCRSVAGSCGF; listed as Homo sapiens) [Compound 9614] | 96 % of control | Inactive | 233 ± 13 | 
30 | 9615 (LRIVQCRSVEASCGF; disulfide 6-13; listed as Homo sapiens) [Compound 9615] | 76 % of control | Active | 183 ± 17 | 
31 | 9616 (LRIVQCRSVEGACGF; disulfide 6-13; listed as Homo sapiens) [Compound 9616] | 84 % of control | Active | 203 ± 19 | 
32 | 9617 (LRIVQCRSVEGSAGF; listed as Homo sapiens) [Compound 9617] | 92 % of control | Inactive | 223 ± 16 | 
33 | 9617 (LRIVQCRSVEGSAGF; listed as Homo sapiens) [compound 9617] |  |  |  | inactive
34 | 9618 (KKLRIVQCRSVEGSCGF; disulfide 8-15; listed as Homo sapiens) [Compound 9618] | 77 % of control | Active | 188 ± 19 | 
